Experimental findings from article PMC6257627, “Target Validation and Identification of Novel Boronate Inhibitors of the Plasmodium falciparum Proteasome” (Journal of Medicinal Chemistry, 2018) are described below.

Like-named read-outs stand apart in the source and are kept apart here.

Experiment [1] relates to human constitutive proteasome and immunoproteasome catalytic subunits. The experiment is described as follows: BMV037 active site probe competition, purified human 20S proteasomes. The experiment is classed as biochemical. Particulars: for subunit specificity by BMV037 probe labeling, human constitutive proteasome and immunoproteasome: compounds 1 h, probe 2 h.
The subject of the next experiment is HepG2 cells. The experiment can be described thus: HepG2 cellular toxicity (CellTiter-Glo, 72 h). Format: cell-based, human. Particulars: for HepG2 LD50 (72 h): 72 h incubation, mean ± SEM or half range, 2–4 experiments; for HepG2 LD50( 72-h): supplement CSV. (Cellular ATP, detected with luciferase, serves as a proxy for viable cell number.)
The subject of a further experiment is HCT116 cells. The experiment is described as follows: HCT116 cellular toxicity (CellTiter-Glo, 72 h). Format: cell-based, human. The conditions noted are these: for HCT116 LD50 (72 h): 72 h incubation, mean ± SEM or half range, 2–4 experiments; for HCT116 LD50 (72-h): supplement CSV. As for the experimental part: HCT-116 and HepG2 cells were obtained from the American Type Culture Collection and maintained as recommended by the supplier. Cells were cultured in the ATCC-formulated McCoy’s 5A medium or DMEM (Life Technologies, CA), supplemented with fetal bovine serum to a final concentration of 9–10%, and incubated at 37 °C in an atmosphere of 95% air and 5% CO2. Cellular toxicity assays were performed using Promega’s CellTiter-Glo assay system. Varying concentrations of the test compounds in 5% DMSO/95% PBS were dispensed into a 384-well plate and cells added to each well. The plates were incubated at 37 °C for 72 h, and the CellTiter-Glo assay to assess cell viability was performed as described by the manufacturer (Promega).
For human cell line activity assays, cellular toxicity assays were performed as described previously.[23],[48]

Experiment [2] relates to Pf20S proteasome subunits of bortezomib-resistant parasites. The experiment is described as follows: BMV037 active site probe competition, bortezomib-resistant parasites. The experiment is classed as biochemical, P. falciparum. Particulars: compounds 1 h. As for the experimental part: Figure 3 Active site probe analysis of the proteasome subunit specificity of the selected compounds in 3D7 parent and bortezomib-resistant parasites. Purified Pf20S proteasome from wild-type 3D7 (A) and bortezomib-resistant (C) parasites or wild-type 3D7 (B) and bortezomib-resistant (D) trophozoite-infected erythrocytes were treated with compounds for 1 h, and activity-based probe (BMV037) labeling was performed (postlysis for the trophozoite samples). Fluorescent gel scans reveal subunits that remain active after treatment.
P. falciparum culture, purified Pf20S proteasomes, human constitutive proteasomes, or immunoproteasomes (Boston Biochem) were incubated with test compounds at 37 °C for 1 h. Treated parasite lysates (10 μg), Pf20S proteasomes (80 nM), human constitutive proteasomes (20 nM), or immuno-20S proteasomes (20 nM) were labeled with BMV037 (10 μM) at 37 °C for 2 h. Samples were mixed with SDS loading buffer and heated at 95 °C for 5 min. Samples for P. falciparum and human immuno-20S were run on 4–12% Bis-Tris acrylamide gels using MES SDS running buffer (Thermo Fisher Scientific). Human constitutive 20S samples were run on a 10% Bis-Tris acrylamide gel using MOPS SDS running buffer (Thermo Fisher Scientific). Gels were imaged at the Cy5 channel on a Gel Doc XR+ Documentation System (Bio-Rad) or an Amersham Typhoon Trio imager (GE Healthcare Life Sciences).

Experiment [3] relates to P. falciparum Cam3.II^R539T. The experiment is described as follows: 3 h pulsed exposure viability assay, K13 mutant early rings. The experiment is classed as cell-based, Plasmodium falciparum. Particulars: for Cam3.II^R539T LD50 (3 h): early ring (1–3 h p.i.), 3 h pulse, viability in next cycle, mean ± SEM, n=3; for Cam3.IIR539T LD50 (3-h): supplement CSV. As for the experimental part:
(§1) For standard assays of antiplasmodial activity, sorbitol-treated ring stage parasites were incubated with the drugs for 72 h and viability was assessed in the second cycle.[12] Drug pulse assays were performed as described previously.[47] For short pulse assays, tightly synchronized early ring stage parasites (1–3 h after invasion) at 0.2% hematocrit and 1–2% parasitemia were subjected to 3 h drug pulse at 37 °C and returned to culture until parasites reached trophozoite stage of the following cycle. Cells were then stained with 2 μM Syto-61 (Thermo Fisher Scientific), and their fluorescence was measured by flow cytometry (FACSCanto II cytometer; Becton Dickinson). Data were gated and analyzed using FCS Express software (version 3) to determine parasitemia of each sample. Viability represents the parasitemia normalized to untreated and “kill treated” controls, where “kill treated” refers to samples treated with 2 μM DHA for 48–72 h. Interactions between DHA and MPI-1 or MPI-4 against the K13 mutant (DHA resistant) Cam3.II P. falciparum strain, exposed to a 3 h pulsed treatment, were determined at 4 h after invasion as described previously.[12]

The test system of experiment [4] is P. falciparum 3D7 parasites. The experiment is described as follows: Standard 72 h antiplasmodial viability assay, 3D7. Format: cell-based, Plasmodium falciparum. Particulars: for Pf3D7 LD50 (72 h): sorbitol-treated ring stage, viability in next cycle (~72 h); for Pf3D7 LD50 (72-h): supplement CSV. As for the experimental part: P. falciparum parasites used in this study were propagated in O+ human erythrocytes (Australian Red Cross Blood Service) in RPMI-1640, supplemented with GlutaMAX, 25 mM HEPES (Thermo Fisher Scientific), 5% (v/v) human serum (Australian Red Cross Blood Service), 0.25% (w/v) AlbuMAX II (Thermo Fisher Scientific), 10 μM D-glucose, 22 μg/mL gentamycin (Sigma-Aldrich), and 0.5 mM hypoxanthine (Sigma-Aldrich) and incubated at 37 °C in an atmosphere of 1% O2, 5% CO2, and 94% N2. Cultures were monitored by Giemsa staining of methanol-fixed blood smears. Culture medium was replaced at least every 48 h, and parasitemia was maintained below 10% to ensure health of cultures. The GFP-DD reporter strain was kindly provided by Dr. Paul Gilson, Dr. Brendan Crabb, and Dr. Mauro F. Azevedo (Burnet Institute).
as §1

In experiment [5] the test system is P. falciparum Cam3.II^Rev. The experiment is described as follows: 3 h pulsed exposure viability assay, K13 wild-type revertant early rings. Format: cell-based, Plasmodium falciparum. Particulars: for Cam3.II^Rev LD50 (3 h): early ring (1–3 h p.i.), 3 h pulse, viability in next cycle, mean ± SEM, n=3; for Cam3.IIRev LD50 (3-h): supplement CSV. As for the experimental part: as §1

For experiment [6], the system named is bortezomib-resistant 3D7 B1 line (clone B1a). The experiment can be described thus: 72 h viability assay, bortezomib-resistant B1 line / clone B1a. Format: cell-based, Plasmodium falciparum. The conditions noted are these: for bortezomib-resistant 3D7 B1 line LD50 (72 h): ring stage; for Bortezomib-resistant3D7 B1 LD50 (72-h): supplement CSV. As for the experimental part: as §1
Prior to selection, an aliquot of the parental line was stocked as a reference for subsequent whole genome sequencing analysis. Several independent clones of P. falciparum 3D7 parasite line were cultured in Petri dishes exposed to increasing drug pressure for ∼30 weeks. Parasites were cloned by limiting dilution. For parasite extraction and genomic DNA isolation, cultures were scaled up to at least 4–5% parasitaemia, lysed in saponin, and genomic DNA was isolated using ISOLATE II Genomic DNA kit (Bioline). DNA libraries for each gDNA sample were prepared for sequencing using the Nextera XT kit as described previously.[50] Libraries were clustered and run on an Illumina HiSeq 2500 using the RapidRun mode, sequencing 100 base pairs in depth on either end. Paired-end reads were either aligned to the P. falciparum 3D7 reference genome (PlasmoDB version 13.0).

For experiment [7], the system named is Pf20S proteasome β1, β2, β5 subunits. Format: biochemical, P. falciparum.
[8] abbreviates: compounds 1 h, purified Pf20S or infected erythrocytes.

For `CC(=O)N1CCC[C@@H]1C(=O)N[C@@H](C)C(=O)N[C@@H](Cc1ccccc1)B(O)O` [MPI-1], the “binding of the BMV037 probe to β5c after treatment” value in experiment [1] (10 μM) is on record as “did not completely ablate binding of the probe to β5c”. In experiment [1], the “subunit specificity by BMV037 probe labeling, human constitutive proteasome and immunoproteasome” value is recorded as “preferentially targeted the β5 subunits”. Besides, in the experiment on HepG2 cells, the “HepG2 LD50 (72 h)” value was 6.7 ± 3.2 µM and the “HepG2 LD50( 72-h)” value came out at 6.7 ± 3.2 µM. Moreover, in the experiment on HCT116 cells, the “HCT116 LD50 (72 h)” value was 0.79 ± 0.01 µM and the “HCT116 LD50 (72-h)” value amounted to 0.79 ± 0.01 µM. In experiment [2], the “BMV037 labeling of the β5 active site in bortezomib-resistant parasites” value is given as “still able to prevent BMV037 labeling of the β5 active site”. Further, in experiment [3], the “Cam3.II^R539T LD50 (3 h)” value is 0.82 ± 0.06 µM and the “Cam3.IIR539T LD50 (3-h)” value was found to be 0.82 ± 0.06 µM. Moreover, the “Pf3D7 LD50 (72 h)” value in experiment [4] (mean ± SEM, n=3) is 0.12 ± 0.01 µM. For the same molecule, the “Pf3D7 LD50 (72-h)” value in experiment [4] is 0.12 ± 0.01 µM. Moreover, in [5], the “Cam3.II^Rev LD50 (3 h)” value worked out at 0.9 ± 0.1 µM and the “Cam3.IIRev LD50 (3-h)” value was found to be 0.9 ± 0.1 µM. Further, the “bortezomib-resistant 3D7 B1 line LD50 (72 h)” value in experiment [6] (mean ± SEM, n=3) turned out to be 0.23 ± 0.04 µM. In addition, the “Bortezomib-resistant3D7 B1 LD50 (72-h)” value in [6] worked out at 0.23 ± 0.04 µM. Also, the “subunit specificity by BMV037 probe labeling, wild-type 3D7” value (“subunit specificity … wild-type 3D7” below) in experiment [7] (setting [8]) was “preferentially inhibited binding of the probe to the β5 subunit”.
For `CC(C)C[C@H](NC(=O)[C@H](Cc1ccccc1)NC(=O)Cc1ccc(O)cc1)B(O)O` [MPI-4], the “subunit specificity by BMV037 probe labeling, human constitutive proteasome and immunoproteasome” value in [1] is “preferential inhibition of the β1 and β5 subunits”. Further, in the experiment on HepG2 cells, the “HepG2 LD50 (72 h)” value came out at 0.04 ± 0.01 µM and the “HepG2 LD50( 72-h)” value came to 0.04 ± 0.01 µM. Also, in the experiment with HCT116 cells, the “HCT116 LD50 (72 h)” value turned out to be 0.025 ± 0.014 µM and the “HCT116 LD50 (72-h)” value was found to be 0.025 ± 0.014 µM. Besides, in [2], the “BMV037 labeling of the β2 active site in bortezomib-resistant parasites” value is on record as “completely inhibit BMV037 labeling of the β2 active site” and the “BMV037 labeling of the β5 active site in bortezomib-resistant parasites” value is given as “did not prevent labeling of the β5 active site”. Besides, in experiment [3], the “Cam3.II^R539T LD50 (3 h)” value was determined as 0.16 ± 0.01 µM and the “Cam3.IIR539T LD50 (3-h)” value is recorded as 0.16 ± 0.01 µM. The “Pf3D7 LD50 (72 h)” value in experiment [4] (mean ± SEM, n=3) was determined as 0.061 ± 0.007 µM. In addition, the “Pf3D7 LD50 (72-h)” value in experiment [4] worked out at 0.061 ± 0.007 µM. Further, in experiment [5], the “Cam3.II^Rev LD50 (3 h)” value is 0.18 ± 0.02 µM and the “Cam3.IIRev LD50 (3-h)” value stood at 0.18 ± 0.02 µM. Moreover, in experiment [6] (growth inhibition, versus 3D7), the “cross-resistance of the bortezomib-resistant parasite line (B1)” value is recorded as “retained sensitivity”. Moreover, the “bortezomib-resistant 3D7 B1 line LD50 (72 h)” value in [6] (mean ± SEM, n=3) was determined as 0.077 ± 0.001 µM. Besides, in experiment [6], the “Bortezomib-resistant3D7 B1 LD50 (72-h)” value came to 0.077 ± 0.001 µM. The “subunit specificity … wild-type 3D7” value in [7] (setting [8]) was “inhibited both β2 and β5 activities”.
For `CC(C)C[C@H](NC(=O)[C@H](Cc1ccccc1)NC(=O)c1cnccn1)B(O)O` [bortezomib, reference compound], the “subunit specificity by BMV037 probe labeling, human constitutive proteasome and immunoproteasome” value in experiment [1] is “preferentially inhibits the β1 and β5 subunits”. For the same molecule, in the experiment with HepG2 cells, the “HepG2 LD50 (72 h)” value was 0.03 ± 0.02 µM and the “HepG2 LD50( 72-h)” value is on record as 0.03 ± 0.02 µM. Further, in the experiment with HCT116 cells, the “HCT116 LD50 (72 h)” value came to 0.006 ± 0.001 µM and the “HCT116 LD50 (72-h)” value was found to be 0.006 ± 0.001 µM. Further, in [2], the “BMV037 competition profile in bortezomib-resistant parasites” value is recorded as “unable to prevent binding of the probe”. Also, in experiment [3], the “Cam3.II^R539T LD50 (3 h)” value came to 0.12 ± 0.02 µM and the “Cam3.IIR539T LD50 (3-h)” value came out at 0.12 ± 0.02 µM. The IC50 in experiment [4] (Plasmodium falciparum, 3D7, dose–response profiles, n = 3, read-out: 50% viability inhibitory concentration against 3D7 parasites) is around 60 nM. For the same molecule, the “LD50 (72 h), 3D7 parent” value in experiment [4] (bortezomib, wild-type parent clone, mean ± SEM, n=3) came out at 0.06 ± 0.01 µM. In addition, in experiment [4] (mean ± SEM, n=3), the “Pf3D7 LD50 (72 h)” value is 0.06 ± 0.01 µM. The “Pf3D7 LD50 (72-h)” value in [4] came to 0.06 ± 0.01 µM. In addition, in experiment [5], the “Cam3.II^Rev LD50 (3 h)” value worked out at 0.18 ± 0.06 µM and the “Cam3.IIRev LD50 (3-h)” value came to 0.18 ± 0.06 µM. In addition, the “LD50 (72 h), 3D7 B1a” value in experiment [6] (bortezomib, resistant clone B1a, mean ± SEM, n=3) was 1.3 ± 0.1 µM. In addition, in experiment [6], the “Bortezomib-resistant3D7 B1 LD50 (72-h)” value was 1.3 ± 0.1 µM. Also, the “subunit specificity … wild-type 3D7” value in experiment [7] is listed as “preferential inhibition of the β5 activity”.
